Measured values as given in publication PMC3340011 (Biophysical Chemistry, 2011).
Entries after “also recorded” stand apart in the source; their conditions may differ.

Assays:
[1] = tested on: CaM1–80, sites I and II; assay: Fluorescence-monitored equilibrium Ca^2+ titration, sites I and II of CaM1–80; format: binding, rat
[2] = tested on: CaM1–148, sites III and IV (C-domain); assay: Fluorescence-monitored equilibrium Ca^2+ titration, sites III and IV of CaM1–148; format: binding, rat; details: for ΔΔG2 = ΔG2^app(CaM+CaV1.2p) − ΔG2^app(CaM): CaM1–148, sites III and IV
[3] = tested on: CaM1–148, sites I and II (N-domain); assay: Fluorescence-monitored equilibrium Ca^2+ titration, sites I and II of CaM1–148; format: binding, rat; details: for ΔΔG2 = ΔG2^app(CaM+CaV1.2p) − ΔG2^app(CaM): CaM1–148, sites I and II; for effect on Ca^2+-binding affinity of N-domain (in words): compared with IQ1644
[4] = tested on: CaM76–148, sites III and IV; format: binding, rat
[5] = molecular target: CaM76–148 (C-domain of calmodulin) (Rattus norvegicus, UniProt P0DP29); assay: Fluorescence anisotropy titration of Fl-Cav1.2p with CaM C-domain; format: binding
[6] = tested on: CaM1–148, sites III and IV (C-domain); details: previous study; cited from earlier work
[7] = tested on: CaM1–148, sites I and II (N-domain); details: previous study; cited from earlier work
[8] = molecular target: CaM1–80 (N-domain of calmodulin) (Rattus norvegicus, UniProt P0DP29); assay: Fluorescence anisotropy titration of Fl-Cav1.2p with CaM N-domain; format: binding; details: pre-IQ region, calcium-saturated
[9] = Calcium dissociation from fluorescent indicator dye; format: binding
[10] = no peptide, 2 μM CaM, pH 7.4, 22 °C, average ± SD
[11] = no peptide, pH 7.4, 22 °C, average ± SD

Row | Compound | ΔΔG2 = ΔG2^app(CaM+CaV1.2p) − ΔG2^app(CaM) [1] | ΔΔG2 = ΔG2^app(CaM+CaV1.2p) − ΔG2^app(CaM) [2] | ΔΔG2 = ΔG2^app(CaM+CaV1.2p) − ΔG2^app(CaM) [3] | effect on Ca^2+-binding affinity of N-domain (in words) [3] | ΔΔG2 = ΔG2^app(CaM+CaV1.2p) − ΔG2^app(CaM) [4] | also measured
1 | CC[C@H](C)[C@H](NC(=O)[C@H](CC(C)C)NC(=O)[C@H](Cc1ccccc1)NC(=O)[C@@H](NC(=O)[C@H](C)N)[C@@H](C)O)C(=O)N[C@@H](CCC(N)=O)C(=O)N[C@@H](CCC(=O)O)C(=O)N[C@@H](Cc1ccc(O)cc1)C(=O)N[C@@H](Cc1ccccc1)C(=O)N[C@@H](CCCNC(=N)N)C(=O)N[C@@H](CCCCN)C(=O)N[C@@H](Cc1ccccc1)C(=O)N[C@@H](CCCCN)C(=O)N[C@@H](CCCCN)C(=O)N[C@@H](CCCNC(=N)N)C(=O)N[C@@H](CCCCN)C(=O)N[C@@H](CCC(=O)O)C(=O)N[C@@H](CCC(N)=O)C(=O)NCC(=O)N[C@@H](CC(C)C)C(=O)N[C@H](C(=O)NCC(=O)N[C@@H](CCCCN)C(=O)N1CCC[C@H]1C(=O)N[C@@H](CO)C(=O)N[C@@H](CCC(N)=O)C(=O)O)C(C)C [IQ′1650] | -0.82 kcal/mol | -3.63 kcal/mol | -1.24 kcal/mol | much weaker effect | -3.35 kcal/mol | fold more favorable affinity for CaM76–148 than CaM1–80 ([5]; Ca^2+-saturated): about 100 fold; Kd ([5]; Kd (CaM dissociation from Fl-Cav1.2p), calcium-saturated, CaM76–148, 10 mM CaCl2, pH 7.4, 22 °C, limit): ≤ 10 nM
2 | CaM1–80: N-domain fragment of calmodulin, residues 1–80 | – | – | – | – | – | ΔG1^app (calcium binding) [1, 10]: -5.92 ± 0.38 kcal/mol; ΔG2^app (calcium binding) [1, 10]: -12.76 ± 0.09 kcal/mol
3 | CaM76–148: C-domain fragment of calmodulin, residues 76–148 | – | – | – | – | – | ΔG1^app (calcium binding) [4, 11]: -5.45 ± 0.51 kcal/mol; ΔG2^app (calcium binding) [4, 11]: -14.66 ± 0.13 kcal/mol
4 | H-ELRAIIKKIWKRTSMKLLDQVV-OH [C1614] | -1.15 kcal/mol | -2.94 kcal/mol | -1.10 kcal/mol | much weaker effect | -2.95 kcal/mol | effect on Ca^2+-binding affinity of C-domain of CaM1–148 [6]: increased the Ca^2+-binding affinity of the C-domain of CaM1–148; effect on Ca^2+-binding affinity of N-domain of CaM1–148 [7]: there was not an effect on the N-domain; domain preference, (Ca^2+)2-C-domain ([5]; pre-IQ region, calcium-saturated): preferred C1614
5 | H-FNATLFALVRTALRIKTEGNLE-OH [A1588] | -1.55 kcal/mol | -1.05 kcal/mol | -2.99 kcal/mol | – | -0.72 kcal/mol | effect on Ca^2+-binding affinity of C-domain (in words) [2]: weak effect; domain preference, (Ca^2+)2-N-domain [8]: bound preferentially to A1588; also recorded: higher affinity for CaM1–80 than for CaM76–148; also recorded: binding the N-domain of CaM more favorably than the C-domain
6 | XRhod5F | – | – | – | – | – | fold lower Kd for calcium (vs Oregon Green) [9]: ~ 20 fold
